Assay results from ChEMBL document CHEMBL1201862, “PubChem BioAssay data set” (2004).
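Cells were grown in 96-well plates and exposed to each compound for 48 hours at five concentrations; endpoints were interpolated linearly between bracketing concentrations, or set to the highest concentration if not reached. Abbreviation: GI50, concentration required for 50% inhibition of growth.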 Calls of active or inactive are those of the source. No stated cut-off is given here; in the data, active = GI50 up to about 1.1 µM and inactive = higher. Where a SMILES comes first, the peptide text is derived from it. The star is where a group is joined. Boc = CC(C)(C)OC(=O)*; nBu = CCCC*

How the values were obtained:
Test in all cases: NCI anticancer screen, dose series, 48 h
PC-3 = test system: PC-3
OVCAR-8 = test system: OVCAR-8
RPMI-8226 = test system: RPMI-8226
TK-10 = test system: TK-10
NCI-H460 = test system: NCI-H460
HOP-62 = test system: HOP-62
Hs-578T = test system: Hs-578T
U-251 = test system: U-251
CAKI-1 = test system: CAKI-1
HT-29 = test system: HT-29
SW-620 = test system: SW-620
HCT-116 = test system: HCT-116
LOX IMVI = test system: LOX IMVI
M14 = test system: M14
SR = test system: SR

| SMILES | GI50 (PC-3) | GI50 (OVCAR-8) | GI50 (RPMI-8226) | GI50 (TK-10) | GI50 (NCI-H460) | GI50 (HOP-62) | GI50 (Hs-578T) | GI50 (U-251) | GI50 (CAKI-1) | GI50 (HT-29) | GI50 (SW-620) | GI50 (HCT-116) | GI50 (LOX IMVI) | GI50 (M14) | GI50 (SR) |
| --- | --- | --- | --- | --- | --- | --- | --- | --- | --- | --- | --- | --- | --- | --- | --- |
| O=c1[nH]nc(Cc2ccccc2)n1/N=C/c1ccc([N+](=O)[O-])cc1 | > 100 µM (inactive) | > 100 µM (inactive) | > 10 µM (inactive) | > 100 µM (inactive) | > 100 µM (inactive) | > 100 µM (inactive) | > 100 µM (inactive) | > 100 µM (inactive) | > 100 µM (inactive) | > 100 µM (inactive) | > 100 µM (inactive) | > 100 µM (inactive) | > 100 µM (inactive) | – | – |
| CC(=O)C1C(=O)C(=O)N(c2ccc(Cl)c(Cl)c2)C1=O (stereo not drawn) | > 100 µM (inactive) | > 100 µM (inactive) | – | > 100 µM (inactive) | > 100 µM (inactive) | > 100 µM (inactive) | – | > 100 µM (inactive) | > 100 µM (inactive) | > 100 µM (inactive) | > 100 µM (inactive) | > 100 µM (inactive) | > 100 µM (inactive) | > 100 µM (inactive) | – |
| COC(=O)/C=C/c1cnc2c(c1)oc(=O)n2CCc1ccccn1 | 90.2 µM (inactive) | – | > 100 µM (inactive) | > 100 µM (inactive) | > 100 µM (inactive) | > 100 µM (inactive) | > 100 µM (inactive) | > 100 µM (inactive) | – | > 100 µM (inactive) | 92 µM (inactive) | > 100 µM (inactive) | > 100 µM (inactive) | > 100 µM (inactive) | 30.8 µM (inactive) |
| CCCCCC(=O)OCC1(CO)C/C(=C\CC(C(C)C)C(C)C)C(=O)O1 (stereo not drawn) | > 100 µM (inactive) | 38.1 µM (inactive) | – | > 100 µM (inactive) | 42.3 µM (inactive) | 39 µM (inactive) | 24.5 µM (inactive) | 25.1 µM (inactive) | 83.6 µM (inactive) | 30.7 µM (inactive) | 24.4 µM (inactive) | 45.7 µM (inactive) | 27 µM (inactive) | > 100 µM (inactive) | 27.2 µM (inactive) |
| COc1ccc(CC2Cc3ccccc3CCN2)cc1OC (stereo not drawn) | > 50 µM (inactive) | > 50 µM (inactive) | 18.3 µM (inactive) | – | 37.4 µM (inactive) | 40.5 µM (inactive) | 23.8 µM (inactive) | > 50 µM (inactive) | > 50 µM (inactive) | 13.8 µM (inactive) | > 50 µM (inactive) | 20.9 µM (inactive) | 38.5 µM (inactive) | 16.2 µM (inactive) | – |
| O=C(/C=C/c1cccs1)c1ccc(C(=O)/C=C/c2cccs2)cc1 | > 100 µM (inactive) | > 100 µM (inactive) | – | > 100 µM (inactive) | > 100 µM (inactive) | > 100 µM (inactive) | > 100 µM (inactive) | > 100 µM (inactive) | > 100 µM (inactive) | > 100 µM (inactive) | > 100 µM (inactive) | – | – | > 100 µM (inactive) | > 100 µM (inactive) |
| CCN1CCN(c2nc3ccccc3nc2C(=O)c2ccc(OC)c(OC)c2)CC1 | 32.7 µM (inactive) | 12.6 µM (inactive) | 10.1 µM (inactive) | 22.4 µM (inactive) | 6.81 µM (inactive) | 21.4 µM (inactive) | – | 14.8 µM (inactive) | 82.4 µM (inactive) | 12.6 µM (inactive) | 15.7 µM (inactive) | 5.31 µM (inactive) | 12.7 µM (inactive) | 16.2 µM (inactive) | 7.06 µM (inactive) |
| CCN1CCCCCCCCCC(=N/O)/C(=N\O)C1 | > 100 µM (inactive) | > 100 µM (inactive) | – | > 100 µM (inactive) | > 100 µM (inactive) | > 100 µM (inactive) | – | > 100 µM (inactive) | > 100 µM (inactive) | > 100 µM (inactive) | > 100 µM (inactive) | > 100 µM (inactive) | > 100 µM (inactive) | > 100 µM (inactive) | > 100 µM (inactive) |
| C[Si](C)(OCCS(=O)(=O)O)C1S(=O)(=O)OCCOS1(=O)=O | 93.5 µM (inactive) | 86.3 µM (inactive) | > 100 µM (inactive) | > 100 µM (inactive) | 31.7 µM (inactive) | 56.4 µM (inactive) | – | 21.8 µM (inactive) | 27.7 µM (inactive) | > 100 µM (inactive) | 0.495 µM (active) | 67.1 µM (inactive) | 21.2 µM (inactive) | 48.2 µM (inactive) | 38.4 µM (inactive) |
| CC1(C)Oc2ccc3c(=O)cc(-c4ccc(F)cc4)oc3c2C1C(=O)O (stereo not drawn) | > 100 µM (inactive) | > 100 µM (inactive) | – | > 100 µM (inactive) | – | > 100 µM (inactive) | > 100 µM (inactive) | > 100 µM (inactive) | 23.3 µM (inactive) | > 100 µM (inactive) | – | > 100 µM (inactive) | – | > 100 µM (inactive) | > 100 µM (inactive) |
| CC(C)C1=CC23CCC4C(C)(C(=O)O)CCCC4(C)C2CC1C1C(=O)N(CCCCCCN2C(=O)C4C5CC6C7(C)CCCC(C)(C(=O)O)C7CCC6(C=C5C(C)C)C4C2=O)C(=O)C13 (stereo not drawn) | 5.9 µM (inactive) | 9.2 µM (inactive) | 13.7 µM (inactive) | 16.2 µM (inactive) | – | > 10 µM (inactive) | 12.3 µM (inactive) | 4.08 µM (inactive) | – | 3.84 µM (inactive) | 15.9 µM (inactive) | 8.51 µM (inactive) | – | 11 µM (inactive) | 7.43 µM (inactive) |
| COCCOCCOCCOc1ccc(C(C#N)N(CCc2ccccc2)C(=O)c2cc(C(=O)N(CCc3ccccc3)C(C#N)c3ccc(OCCOCCOCCOC)cc3)cc(C(=O)N(CCc3ccccc3)C(C#N)c3ccc(OCCOCCOCCOC)cc3)c2)cc1 (stereo not drawn) | > 100 µM (inactive) | > 100 µM (inactive) | – | > 100 µM (inactive) | > 100 µM (inactive) | > 100 µM (inactive) | 54.3 µM (inactive) | > 100 µM (inactive) | – | > 100 µM (inactive) | > 100 µM (inactive) | > 100 µM (inactive) | > 100 µM (inactive) | > 100 µM (inactive) | > 100 µM (inactive) |
| CC1CCCN1CCCOC(=O)c1ccc(OC2C=CCCC2)cc1 (stereo not drawn) | 22.4 µM (inactive) | 47.6 µM (inactive) | 31.8 µM (inactive) | 36.9 µM (inactive) | 17.1 µM (inactive) | 20.1 µM (inactive) | 32.4 µM (inactive) | 37.6 µM (inactive) | – | 17.7 µM (inactive) | 20.7 µM (inactive) | 17.2 µM (inactive) | 19.7 µM (inactive) | 16.2 µM (inactive) | 28.1 µM (inactive) |
| C#CCCCC(=C)C[C@H](OCc1ccccc1)[C@H]1OC(=O)[C@@H]1C | 48.2 µM (inactive) | 31.8 µM (inactive) | 11.5 µM (inactive) | > 100 µM (inactive) | > 100 µM (inactive) | > 100 µM (inactive) | – | > 100 µM (inactive) | 14.9 µM (inactive) | – | > 100 µM (inactive) | – | – | 81.3 µM (inactive) | 44.5 µM (inactive) |
| CO/C=C(/C(=O)OC)[C@@H]1C[C@@H]1c1ccc2ccccc2c1 | 27.7 µM (inactive) | 34 µM (inactive) | 20.3 µM (inactive) | 37.5 µM (inactive) | 27.2 µM (inactive) | 45.4 µM (inactive) | 31.8 µM (inactive) | 27.4 µM (inactive) | 21.6 µM (inactive) | 19.1 µM (inactive) | – | 18.1 µM (inactive) | – | 22.8 µM (inactive) | 13.2 µM (inactive) |
| CC[C@@]1(N(C)C)C(=O)OCc2c1cc1n(c2=O)Cc2cc3ccccc3nc2-1 | 58.3 µM (inactive) | 16.9 µM (inactive) | 31.3 µM (inactive) | 48.2 µM (inactive) | 12.5 µM (inactive) | 16.9 µM (inactive) | – | 29.2 µM (inactive) | > 10 µM (inactive) | – | 32.1 µM (inactive) | 33.1 µM (inactive) | 17.1 µM (inactive) | > 100 µM (inactive) | – |
| CN(Cc1cnc2nc(N)nc(N)c2n1)c1ccc(C(=O)NC(CCC(=O)O)C(=O)O)cc1 (stereo not drawn) | 3.81 µM (inactive) | < 0.0448 µM (active) | < 0.0284 µM (active) | 0.869 µM (active) | < 0.01 µM (active) | – | – | 0.0916 µM (active) | < 0.0157 µM (active) | < 0.01 µM (active) | < 0.01 µM (active) | < 0.01 µM (active) | < 0.01 µM (active) | 0.117 µM (active) | < 0.01 µM (active) |
| CCN(CC)Cc1sc2nc3ccccc3n2c1-c1ccc(OC)cc1 | 17.4 µM (inactive) | 36.9 µM (inactive) | 10.5 µM (inactive) | 79.6 µM (inactive) | – | 65.5 µM (inactive) | 34.9 µM (inactive) | 29.2 µM (inactive) | 38.8 µM (inactive) | 18.5 µM (inactive) | 29 µM (inactive) | 26.6 µM (inactive) | 28.3 µM (inactive) | 25.6 µM (inactive) | – |
| c1ccc2c(CSCc3cccc4ccccc34)cccc2c1 | 43.4 µM (inactive) | > 100 µM (inactive) | – | > 100 µM (inactive) | 43.4 µM (inactive) | > 100 µM (inactive) | > 100 µM (inactive) | 85.1 µM (inactive) | > 100 µM (inactive) | 40.2 µM (inactive) | > 100 µM (inactive) | 57.5 µM (inactive) | > 100 µM (inactive) | > 100 µM (inactive) | 28.6 µM (inactive) |
| CCCCOc1ccc(CC(NC(=O)OC(C)(C)C)C(=O)NC(C)C(=O)NC(Cc2ccccc2)C(=O)NCC(N)=O)cc1 (stereo not drawn) (Boc-Y(nBu)AFG-NH2; configuration not given here) | > 100 µM (inactive) | > 100 µM (inactive) | 32.6 µM (inactive) | > 100 µM (inactive) | > 100 µM (inactive) | > 100 µM (inactive) | > 100 µM (inactive) | 59.4 µM (inactive) | > 100 µM (inactive) | > 100 µM (inactive) | > 100 µM (inactive) | > 100 µM (inactive) | 65 µM (inactive) | > 100 µM (inactive) | – |
